Key:
[1] = biological target: T1, PG0352 (Porphyromonas gingivalis, UniProt Q7MX62); assay: X-ray crystal structure, […] Å (soaked); format: binding; conditions: 10 mM soak, 20 min; sialidase active site; sialidase inhibitor
T1 construct: gene PG_0352; N-terminal His6, residues 31-526 (CBM 31-176 plus sialidase domain 177-523), signal peptide removed, codon-optimized, pQE80L, E. coli BL21-Star (DE3); monomer, ~52 kDa by SEC

[2] = biological target: T1, PG0352; assay: X-ray crystal structure, […] Å (soaked); format: binding; conditions: 27 mM soak, 60 min; sialidase active site; alpha anomer
[3] = biological target: T1, PG0352; assay: X-ray crystal structure, […] Å (co-crystallized); format: binding; conditions: 5 mM ligand; bound in CBM cleft, not the active site
[4] = test system: Cc1cc(=O)oc2cc(O[C@@]3(C(=O)O)C[C@H](O)[C@@H](NC(=O)CO)[C@H]([C@H](O)[C@H](O)CO)O3)ccc12; assay: purified protein; conditions: 10 mM sodium citrate, pH 5.0, 37 °C, 1 min, 5 nM enzyme
[5] = test system: CC(=O)N[C@H]1[C@H]([C@H](O)[C@H](O)CO)O[C@@](Oc2ccc3c(C)cc(=O)oc3c2)(C(=O)O)C[C@@H]1O; assay: purified protein; conditions: 10 mM sodium citrate, pH 5.0, 37 °C, 1 min, 5 nM enzyme

T1 sequence (Q7MX62 entry or part of it): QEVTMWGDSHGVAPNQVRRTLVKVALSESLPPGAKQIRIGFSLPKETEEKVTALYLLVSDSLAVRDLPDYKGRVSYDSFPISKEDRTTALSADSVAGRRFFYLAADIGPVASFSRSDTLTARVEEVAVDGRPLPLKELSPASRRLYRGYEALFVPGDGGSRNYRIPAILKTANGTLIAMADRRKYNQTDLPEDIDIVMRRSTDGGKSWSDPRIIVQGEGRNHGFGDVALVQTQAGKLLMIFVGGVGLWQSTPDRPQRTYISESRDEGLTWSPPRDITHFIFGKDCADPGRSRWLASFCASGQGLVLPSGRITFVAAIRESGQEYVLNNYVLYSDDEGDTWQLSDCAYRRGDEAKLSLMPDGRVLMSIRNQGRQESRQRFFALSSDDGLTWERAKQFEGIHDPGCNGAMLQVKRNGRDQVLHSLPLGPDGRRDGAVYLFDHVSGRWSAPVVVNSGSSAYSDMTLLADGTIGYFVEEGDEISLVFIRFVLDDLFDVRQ

Compound: CC(=O)N[C@H]1[C@H]([C@H](O)[C@H](O)CO)OC(C(=O)O)=C[C@@H]1O [DANA]
- X-ray crystal structure, 2.14 Å (soaked) [1]: DANA binds within the sialidase active site in a similar conformation

Compound: CC(=O)N[C@H]1[C@H]([C@H](O)[C@H](O)CO)OC(O)(C(=O)O)C[C@@H]1O (some centres unmarked) [Neu5Ac]
- X-ray crystal structure, 1.93 Å (soaked) [2]: Clear electron density was visible for Neu5Ac bound in its alpha anomeric form

Compound: OCC1(O)OC[C@@H](O)[C@@H](O)[C@@H]1O (some centres unmarked) [fructose]
- X-ray crystal structure, 2.29 Å (co-crystallized) [3]: we co-crystallized PG0352 with fructose and determined the structure of the complex

Compound: PG0352 (Porphyromonas gingivalis W83)
- Km [4]: 81.65 ± 20.56 µM
- Km [5]: 39.31 ± 6.540 µM
